Peptide text beside a SMILES is read from it.
How the values were obtained:
[1] = system: McCoy mouse fibroblast cells; assay type: cell-based; conditions: MTT test, peptide C=0,1 mM (100 µM), 24 h incubation at 37 °C, 5% CO2, absorbance 570/690 nm, mean ± standard deviation (n = 5)
Protocol: (§1) Since the peptides predicted as CPPs are intended to be used as safe intracellular delivery systems, it is necessary to evaluate the degree of their toxicity to mammalian cells. For this purpose, the compounds investigated were added to human HaCaT keratinocyte cells and McCoy mouse fibroblast cells at a final concentration of 100 μM.
(§2) One of the most important criteria in the search for new penetrating peptides is to ensure the safety of their further use and to assess potential problems and risks. […] Therefore, we incubated human HaCaT keratinocyte and McCoy mouse fibroblast cells with our synthesized compounds at a final concentration of 100 μM for 24 h at 37 °C. […] The use of a fluorescent tag makes it possible to observe the penetration of the peptides as well as their distribution and localization within the cells. For this purpose, the synthesized compounds were conjugated with the fluorescent tag NBD-F and incubated with cells at a final concentration of […] for 4 h at 37 °C.
(§3) McCoy mouse fibroblast cell line (ATCC® CRL-1696™) was grown in a CO2 incubator at 37 °C, 5% CO2 in DMEM medium supplemented with 10% FBS and gentamicin (10 mkg/mL). Human immortalized keratinocyte line HaCaT cells (ATCC® PCS-200-011™) were grown in CO2-incubator at 37 °C, 5% CO2 in RPMI medium supplemented with 10% FBS and gentamicin (10 mkg/mL).
(§4) The cytotoxicity of the peptides was assessed using the MTT-test (3-(4,5-dimethylthiazol-2-yl)2,5-diphenyltetrazolium bromide) according to a standard protocol. McCoy, HaCaT cells were seeded in 96-well plates to a density of 5 × 10^3 cells and 3 × 10^3 cells in each well and incubated at 37 °C, 5% CO2 for 24 h. After 24 h incubation, the cells were washed with Hanks’ balanced salt solution (HBSS). The test peptides were tested at a final concentration of 100 µM in five replicates. Fresh culture medium without added peptides was used as a negative control. […] After adding 100 µL of the test compound to the cells, the samples were incubated at 37 °C, 5% CO2 for 24 h. Next, 10 µL of MTT working solution was added to each well, followed by incubating the cells for 4 h and adding 100 µL of solubilizing buffer to dissolve the formazan crystals. The amount of MTT was measured spectrophotometrically at 570 nm and 690 nm using a Multiskan Ascent microplate photometer (ThermoScientific, Waltham, MA, USA).
(§5) Results were processed using Microsoft Office Excel. During the evaluation of cell viability in the first step, the difference between the values obtained at 570 nm and 690 nm was found for each group of measurements. Then, dose-dependent curves were plotted for each cell line. […] The next step was to recalculate the values as a percentage of the positive control and obtain the mean values and standard deviation for each peptide.

[2] = system: human HaCaT keratinocyte cells; assay type: cell-based; conditions: MTT test, peptide C=0,1 mM (100 µM), 24 h incubation at 37 °C, 5% CO2, absorbance 570/690 nm, mean ± standard deviation (n = 5)
Protocol: as §1, §2, §3, §4, §5

Compound | Percentage of Viable Cells, McCoy [1] [%] | Percentage of Viable Cells, HaCaT [2] [%]
CSCC[C@H](NC(=O)[C@H](Cc1c[nH]cn1)NC(=O)[C@H](Cc1c[nH]c2ccccc12)NC(=O)[C@@H](NC(=O)[C@@H](N)CCCCN)[C@@H](C)O)C(=O)N[C@H](C(=O)N[C@@H](Cc1ccc(O)cc1)C(=O)N1CCC[C@H]1C(=O)NCC(=O)NCC(=O)N[C@@H](Cc1ccc(O)cc1)C(=O)N[C@@H](CC(=O)O)C(=O)N[C@@H](Cc1c[nH]cn1)C(=O)N[C@H](C(=O)N[C@@H](CCCNC(=N)N)C(=O)NCC(=O)O)[C@@H](C)O)C(C)C [CpOH10] (H-KTWHMVYPGGYDHTRG-OH) | 94.4 ± 3.1 | 94.6 ± 3.3
CC(C)[C@H](NC(=O)[C@@H](N)[C@@H](C)O)C(=O)N[C@@H](C)C(=O)N[C@@H](CC(N)=O)C(=O)N[C@@H](Cc1ccccc1)C(=O)N[C@@H](CCCCN)C(=O)N[C@H](C(=O)N[C@@H](CC(N)=O)C(=O)N[C@@H](CO)C(=O)N[C@@H](C)C(=O)N[C@@H](C)C(=O)N1CCC[C@H]1C(=O)N1CCC[C@H]1C(=O)N[C@@H](C)C(=O)N[C@@H](C)C(=O)N[C@@H](CCC(=O)O)C(=O)N1CCC[C@H]1C(=O)N1CCC[C@H]1C(=O)N[C@@H](CCCNC(=N)N)C(=O)O)[C@@H](C)O [CpRE13] (H-TVANFKTNSAAPPAAEPPR-OH) | 89.7 ± 3.3 | 90.6 ± 3.6
CC(C)C[C@H](NC(=O)[C@H](CCC(N)=O)NC(=O)[C@H](Cc1c[nH]c2ccccc12)NC(=O)[C@H](Cc1c[nH]cn1)NC(=O)[C@H](CCCCN)NC(=O)[C@H](CCCCN)NC(=O)[C@H](CCC(N)=O)NC(=O)[C@H](CCCNC(=N)N)NC(=O)[C@H](Cc1ccc(O)cc1)NC(=O)[C@H](Cc1c[nH]cn1)NC(=O)[C@H](Cc1ccccc1)NC(=O)[C@H](Cc1ccc(O)cc1)NC(=O)[C@H](CCCNC(=N)N)NC(=O)[C@@H](N)CS)C(=O)O [CpHI4] (H-CRYFHYRQKKHWQL-OH) | 95.5 ± 3.2 | 95.3 ± 3.5
C[C@H](NC(=O)[C@H](C)NC(=O)[C@H](CCCCN)NC(=O)[C@@H](N)CO)C(=O)N[C@@H](CC(=O)O)C(=O)N[C@@H](CCC(=O)O)C(=O)N[C@@H](CO)C(=O)N[C@@H](CCC(=O)O)C(=O)N[C@@H](CCCNC(=N)N)C(=O)O [CpHM5] (H-SKAADESER-OH) | 96.3 ± 3.4 | 93.8 ± 2.4
CC[C@H](C)[C@H](NC(=O)CN)C(=O)NCC(=O)N[C@@H](C)C(=O)N[C@H](C(=O)N[C@@H](CC(C)C)C(=O)N[C@@H](CCCCN)C(=O)N[C@H](C(=O)N[C@@H](CC(C)C)C(=O)N[C@H](C(=O)N[C@H](C(=O)NCC(=O)N[C@@H](CC(C)C)C(=O)N1CCC[C@H]1C(=O)N[C@@H](C)C(=O)N[C@@H](CC(C)C)C(=O)N[C@H](C(=O)N[C@@H](CO)C(=O)N[C@@H](Cc1c[nH]c2ccccc12)C(=O)N[C@H](C(=O)N[C@@H](CCCCN)C(=O)N[C@@H](CCCNC(=N)N)C(=O)N[C@@H](CCCCN)C(=O)N[C@@H](CCCNC(=N)N)C(=O)N[C@@H](CCC(N)=O)C(=O)N[C@@H](CCC(N)=O)C(N)=O)[C@@H](C)CC)[C@@H](C)CC)[C@@H](C)O)[C@@H](C)O)C(C)C)C(C)C [melittin, reference compound] | 0.0 | 0.1 ± 0.1
CC[C@H](C)[C@H](NC(=O)[C@H](CCC(N)=O)NC(=O)[C@H](Cc1c[nH]c2ccccc12)NC(=O)[C@H](CCC(N)=O)NC(=O)[C@H](Cc1ccc(O)cc1)NC(=O)[C@@H](N)CO)C(=O)N[C@@H](Cc1ccccc1)C(=O)N[C@@H](Cc1ccc(O)cc1)C(=O)N[C@@H](CCCNC(=N)N)C(=O)N[C@@H](CO)C(=O)N[C@@H](CC(C)C)C(=O)N[C@@H](CC(=O)O)C(=O)NCC(=O)N[C@@H](CO)C(=O)NCC(=O)N[C@@H](C)C(=O)N[C@@H](CCCCN)C(=O)N[C@@H](CCC(=O)O)C(=O)O [CpRE12] (H-SYQWQIFYRSLDGSGAKE-OH) | 87.6 ± 4.6 | 84.4 ± 4.0
CC[C@H](C)[C@H](NC(=O)[C@H](C)N)C(=O)N[C@@H](CCCNC(=N)N)C(=O)N[C@@H](CC(N)=O)C(=O)N[C@@H](CC(=O)O)C(=O)N[C@@H](CCC(=O)O)C(=O)N[C@@H](CCC(=O)O)C(=O)N[C@@H](CC(C)C)C(=O)N[C@@H](CC(N)=O)C(=O)N[C@@H](CCCCN)C(=O)O [CpHM6] (H-AIRNDEELNK-OH) | 95.3 ± 3.4 | 92.2 ± 2.9

— PMC11241344, “TriplEP-CPP: Algorithm for Predicting the Properties of Peptide Sequences” (International Journal of Molecular Sciences, 2024)
